The test has as its system L1210 leukemia ip in BDF1 mice, survival T/C. Description: NCI In Vivo Anticancer Drug Screen. Data for tumor model L1210 Leukemia (intraperitoneal) in B6D2F1 (BDF1) mice. Conditions: endpoint: mean survival time, higher = longer survival. The procedure, abridged:
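Value reflects the ratio of survival in compound-treated mice to survival in vehicle-treated controls, with both groups carrying the same transplanted tumor.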

The mark [1] stands for this setting: dose: 100.0 mg/kg/injection, schedule: Q01DX001 (ip), vehicle: Klucel (hydroxypropylcellulose) (HPC).
[2] abbreviates: dose: 100.0 mg/kg/injection, schedule: Q01DX009 (ip), vehicle: Klucel (hydroxypropylcellulose) (HPC).
The mark [3] stands for this setting: dose: 100.0 mg/kg/injection, schedule: Q04DX003 (ip), vehicle: Klucel (hydroxypropylcellulose) (HPC).
Where [4] appears, read: dose: 200.0 mg/kg/injection, schedule: Q01DX001 (ip), vehicle: Klucel (hydroxypropylcellulose) (HPC).
Where [5] appears, read: dose: 200.0 mg/kg/injection, schedule: Q01DX009 (ip), vehicle: Klucel (hydroxypropylcellulose) (HPC).
[6] abbreviates: dose: 200.0 mg/kg/injection, schedule: Q04DX003 (ip), vehicle: Klucel (hydroxypropylcellulose) (HPC).
The mark [7] stands for this setting: dose: 400.0 mg/kg/injection, schedule: Q01DX001 (ip), vehicle: Klucel (hydroxypropylcellulose) (HPC).
Setting [8] is: dose: 400.0 mg/kg/injection, schedule: Q04DX003 (ip), vehicle: Klucel (hydroxypropylcellulose) (HPC).
Setting [9] is: dose: 100.0 mg/kg/injection, schedule: Q04DX002 (ip), vehicle: Klucel (hydroxypropylcellulose) (HPC).
Setting [10] is: dose: 200.0 mg/kg/injection, schedule: Q04DX002 (ip), vehicle: Klucel (hydroxypropylcellulose) (HPC).
[11] abbreviates: dose: 400.0 mg/kg/injection, schedule: Q04DX002 (ip), vehicle: Klucel (hydroxypropylcellulose) (HPC).
Setting [12] is: dose: 100.0 mg/kg/injection, schedule: Q01DX001 (ip), vehicle: saline.
Where [13] appears, read: dose: 200.0 mg/kg/injection, schedule: Q01DX001 (ip), vehicle: saline.
Setting [14] is: dose: 400.0 mg/kg/injection, schedule: Q01DX001 (ip), vehicle: saline.
The mark [15] stands for this setting: dose: 50.0 mg/kg/injection, schedule: Q01DX001 (ip), vehicle: carboxymethylcellulose (CMC).
[16] abbreviates: dose: 100.0 mg/kg/injection, schedule: Q01DX001 (ip), vehicle: carboxymethylcellulose (CMC).

“And” between values parts separate entries of the source, which are not always exact repeats. Equal entries are not always repeated. Inconclusive results and toxic doses are left out.

`C=C(C)C1CC=C(C=O)CC1` (stereo unspecified): the T/C by setting is: under setting [1], 93 % of control; under setting [2], 94 % of control; under setting [3], 101 % of control; under setting [4], 92 % of control; under setting [5], 109 % of control; under setting [6], 98 % of control. Besides, the T/C was 92 % of control under setting [7] and 101 % of control under setting [8].

In the case of `CCOC(=O)C1CCC(NC(=O)N(CCCl)N=O)CC1` (stereo unspecified), the T/C (dose: 3.0 mg/kg/injection, schedule: Q01DX001 (ip), vehicle: other) is 109 % of control; the T/C (dose: 12.0 mg/kg/injection, schedule: Q01DX001 (ip), vehicle: other) was 189 % of control; the T/C (dose: 16.0 mg/kg/injection, schedule: Q01DX001 (ip), vehicle: other) is 281 % of control; the T/C (dose: 20.0 mg/kg/injection, schedule: Q01DX001 (ip), vehicle: other) was 298 % of control; the T/C (dose: 21.0 mg/kg/injection, schedule: Q01DX001 (ip), vehicle: other) was 315 % of control; the T/C (dose: 24.0 mg/kg/injection, schedule: Q01DX001 (ip), vehicle: other) is 267 % of control. The T/C runs as follows: (dose: 30.0 mg/kg/injection, schedule: Q01DX001 (ip), vehicle: other) 283 % of control; (dose: 31.0 mg/kg/injection, schedule: Q01DX001 (ip), vehicle: other) 317 % of control and 337 % of control; (dose: 44.0 mg/kg/injection, schedule: Q01DX001 (ip), vehicle: other) 270 % of control; (dose: 47.0 mg/kg/injection, schedule: Q01DX001 (ip), vehicle: other) 252 % of control; (dose: 62.0 mg/kg/injection, schedule: Q01DX001 (ip), vehicle: other) 259 % of control; (dose: 70.0 mg/kg/injection, schedule: Q01DX001 (ip), vehicle: other) 159 % of control.

As to `CC(=O)Nc1cc(N(CCOS(C)(=O)=O)CCOS(C)(=O)=O)ccc1N=O`, the T/C runs as follows: (dose: 0.05 mg/kg/injection, schedule: Q01DX015 (ip), vehicle: saline) 114 % of control; (dose: 0.1 mg/kg/injection, schedule: Q01DX015 (ip), vehicle: saline) 123 % of control; (dose: 0.2 mg/kg/injection, schedule: Q01DX015 (ip), vehicle: saline) 114 % of control; (dose: 0.4 mg/kg/injection, schedule: Q01DX015 (ip), vehicle: saline) 114 % of control; (dose: 1.0 mg/kg/injection, schedule: Q01DX015 (ip), vehicle: saline) 121 % of control; (dose: 1.7 mg/kg/injection, schedule: Q01DX015 (ip), vehicle: saline) 119 % of control. For the same compound, the T/C (dose: 7.5 mg/kg/injection, schedule: Q01DX001 (ip), vehicle: saline) is 113 % of control and the T/C (dose: 10.0 mg/kg/injection, schedule: Q01DX001 (ip), vehicle: saline) is 124 % of control.

Turning to `c1ccc(C2=NN(c3ccccc3)CC2)cc1`, the T/C is, setting by setting: under setting [9], 106 % of control; under setting [10], 98 % of control; under setting [11], 106 % of control.

Take `NC(N)=N/N=C\c1ccc(C2CCNCC2)cc1`: the T/C is 107 % of control (dose: 15.0 mg/kg/injection, schedule: Q01DX Z (ip), vehicle: methylcellulose (MC)); 110 % of control (dose: 15.0 mg/kg/injection, schedule: Q01DX Z (oral), vehicle: methylcellulose (MC)); 108 % of control (dose: 30.0 mg/kg/injection, schedule: Q01DX Z (ip), vehicle: methylcellulose (MC)); 100 % of control (dose: 30.0 mg/kg/injection, schedule: Q01DX Z (oral), vehicle: methylcellulose (MC)); 104 % of control (dose: 60.0 mg/kg/injection, schedule: Q01DX Z (oral), vehicle: methylcellulose (MC)).

Take `Nc1nc2n(O)cc(C(O)C(O)CO)nc-2c(=O)n1` (stereo unspecified): the T/C under setting [12] is 100 % of control, the T/C under setting [13] is 103 % of control and the T/C under setting [14] is 103 % of control.

With `CN(C)C1CCN(Cc2ccccc2)CC1`, the T/C (dose: 50.0 mg/kg/injection, schedule: Q01DX009 (ip), vehicle: saline) is 94 % of control; the T/C (dose: 50.0 mg/kg/injection, schedule: Q04DX003 (ip), vehicle: saline) was 100 % of control; the T/C (dose: 100.0 mg/kg/injection, schedule: Q01DX009 (ip), vehicle: saline) is 96 % of control; the T/C (dose: 100.0 mg/kg/injection, schedule: Q04DX003 (ip), vehicle: saline) is 97 % of control; the T/C (dose: 200.0 mg/kg/injection, schedule: Q01DX009 (ip), vehicle: saline) was 93 % of control; the T/C (dose: 200.0 mg/kg/injection, schedule: Q04DX003 (ip), vehicle: saline) is 92 % of control.

Turning to `CC1Cc2c(Cl)cc(C(=O)NC(Cc3ccccc3)C(=O)O)c(O)c2C(=O)O1` (stereo unspecified), the T/C by setting is: (dose: 0.12 mg/kg/injection, schedule: Q01DX009 (ip), vehicle: saline with Tween-80) 95 % of control; (dose: 0.25 mg/kg/injection, schedule: Q01DX009 (ip), vehicle: saline with Tween-80) 93 % of control; (dose: 0.5 mg/kg/injection, schedule: Q01DX009 (ip), vehicle: saline with Tween-80) 96 % of control; (dose: 1.0 mg/kg/injection, schedule: Q01DX009 (ip), vehicle: saline with Tween-80) 96 % of control; under setting [15], 100 % of control; under setting [16], 107 % of control.

`CCOc1ccccc1C1N(C)CCCN1C`: the T/C (dose: 6.25 mg/kg/injection, schedule: Q04DX003 (ip), vehicle: saline with Tween-80) was 99 % of control; the T/C (dose: 12.5 mg/kg/injection, schedule: Q04DX003 (ip), vehicle: saline with Tween-80) was 100 % of control; the T/C (dose: 25.0 mg/kg/injection, schedule: Q04DX003 (ip), vehicle: saline with Tween-80) is 99 % of control.

Consider `O=C1C(=O)N2CCCCc3cccc1c32`, for which the T/C is 96 % of control under setting [15]; 108 % of control under setting [16]; 100 % of control (dose: 200.0 mg/kg/injection, schedule: Q01DX001 (ip), vehicle: carboxymethylcellulose (CMC)); 101 % of control (dose: 400.0 mg/kg/injection, schedule: Q01DX001 (ip), vehicle: carboxymethylcellulose (CMC)).

Take `CCOC(=O)C(=Cc1ccc(C=C(C(=O)OCC)C(=O)OCC)cc1)C(=O)OCC`: the T/C reads like this: (dose: 50.0 mg/kg/injection, schedule: Q04DX003 (ip), vehicle: Klucel (hydroxypropylcellulose) (HPC)) 100 % of control; under setting [3], 100 % of control; under setting [6], 94 % of control.

Take `CCOC(=O)c1cnc(C(Cl)(Cl)Cl)[nH]c1=O`: the T/C under setting [1] was 94 % of control, the T/C under setting [4] was 99 % of control and the T/C under setting [7] was 92 % of control.

`O=C(O)CSc1cc(Cl)c(Cl)cc1Cl`: the T/C runs as follows: (dose: 87.5 mg/kg/injection, schedule: Q04DX003 (ip), vehicle: other) 100 % of control; (dose: 175.0 mg/kg/injection, schedule: Q04DX003 (ip), vehicle: other) 110 % of control.

On to `CCCCCCOC(=O)Nc1ccc(S(=O)(=O)N(C)C)cc1`, for which the T/C under setting [12] was 103 % of control, the T/C under setting [13] is 108 % of control and the T/C under setting [14] is 102 % of control.

In the case of `CC1CCC(C(=O)O)(C(=O)NC(N)=O)CC1C` (stereo unspecified), the T/C is, setting by setting: (dose: 100.0 mg/kg/injection, schedule: Q01DX001 (ip), vehicle: steriod suspending solution) 93 % of control; (dose: 200.0 mg/kg/injection, schedule: Q01DX001 (ip), vehicle: steriod suspending solution) 110 % of control; (dose: 400.0 mg/kg/injection, schedule: Q01DX001 (ip), vehicle: steriod suspending solution) 114 % of control.

Take `O=C(Nc1cc([N+](=O)[O-])ccc1F)Oc1ccc(OCc2ccccc2)cc1`: the T/C is 103 % of control under setting [9], 89 % of control under setting [10] and 106 % of control under setting [11].

For `CCN(CC)c1ccc(/C=C/c2ccncc2)cc1`, the T/C under setting [2] is 93 % of control; the T/C under setting [3] is 104 % of control; the T/C under setting [5] is 92 % of control; the T/C under setting [6] is 96 % of control; the T/C (dose: 400.0 mg/kg/injection, schedule: Q01DX009 (ip), vehicle: Klucel (hydroxypropylcellulose) (HPC)) is 90 % of control; the T/C under setting [8] is 93 % of control.

These data come from PubChem BioAssay AID248 (DTP/NCI, 2004).
